Values quoted from earlier work, collected in patent publication US20030232875A1, “Bicyclic pyrrolyl amides as glucogen phosphorylase inhibitors” (priority 2000, published 2003).

Tests used:
[1] = system: hepatocytes; details: in hepatocytes
[2] = system: db/db and ob/ob mice; details: db/db and ob/ob mice following treatment
[3] = system: conscious dogs; details: following a glucagon challenge

| SMILES | glucagon stimulated glycogenolysis [1] | glucose output [1] | plasma glucose concentration [2] | arterial plasma glucose levels [3] | hepatic glucose output [3] |
| --- | --- | --- | --- | --- | --- |
| CN(C)C(=O)[C@H](O)[C@H](Cc1ccccc1)NC(=O)c1cc2cc(Cl)ccc2[nH]1 [CP91149] | reduce | reduce | reduced, in a dose related manner | – | – |
| O=C(N[C@@H](Cc1ccc(F)cc1)C(=O)N1CCC(O)CC1)c1cc2cc(Cl)ccc2[nH]1 [CP320626] | reduce | reduce | reduced, in a dose related manner | – | – |
| CCN1C(C)=C(C(=O)OC(C)C)C(c2ccccc2Cl)C2=C1COC2=O (centres unmarked) [Bay R 3401] | – | – | – | reduced significantly | reduced significantly |
